By EC50 is commonly meant the concentration giving half of the maximal effect. The term melting point denotes the temperature of the solid-liquid transition.

In series [1] the test system is KKA^y mice. Nature of the series: Hypoglycemic and hypolipidemic actions in mice (test compound in diet, plasma glucose and triglyceride). The following applies: Mus musculus, feed or water, 96 h, 4 days. The format is in vivo. As to the method:
A test compound was added to a powdered diet (CE-2, Clea Japan Inc.) at a concentration of 0.01%, and the diet was given ad libitum to KKA^y mice (9 to 12 weeks old, 5 animals in a group), a model of obese Type II diabetes mellitus (non-insulin dependent diabetes mellitus), for 4 days. During this period, water was given ad libitum. Blood was sampled from orbital venous plexus and plasma glucose and triglyceride levels were determined enzymatically using L type Wako Glu2 (Wako Pure Chemical In. Ltd.) and Iatro-MA701 TG kit (Iatron Laboratories Inc.) or L type Wako TG.H (Wako Pure Chemical Ind. Ltd.), respectively.
The value of each treatment group is represented as % reduction when compared with the non-treatment group, and summarized in Table 1.

In a further series the target is T1, PPARγ-RXRα heterodimer (Homo sapiens, UniProt P37231).
T1 construct: expressed in transfected cells
T1 sequence (P37231 1-477 isoform P37231-2): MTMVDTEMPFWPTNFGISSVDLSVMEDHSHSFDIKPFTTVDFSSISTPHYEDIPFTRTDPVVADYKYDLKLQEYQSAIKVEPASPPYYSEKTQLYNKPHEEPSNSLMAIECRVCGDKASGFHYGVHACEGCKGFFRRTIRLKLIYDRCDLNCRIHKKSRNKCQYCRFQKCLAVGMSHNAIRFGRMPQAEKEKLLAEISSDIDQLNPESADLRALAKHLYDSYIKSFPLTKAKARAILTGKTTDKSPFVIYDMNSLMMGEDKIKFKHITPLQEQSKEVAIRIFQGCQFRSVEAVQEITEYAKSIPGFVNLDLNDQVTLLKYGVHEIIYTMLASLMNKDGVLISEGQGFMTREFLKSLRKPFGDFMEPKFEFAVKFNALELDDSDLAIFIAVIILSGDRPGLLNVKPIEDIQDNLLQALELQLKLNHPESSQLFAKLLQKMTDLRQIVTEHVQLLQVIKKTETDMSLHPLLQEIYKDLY
T1 sequence (P19793 1-462 partner): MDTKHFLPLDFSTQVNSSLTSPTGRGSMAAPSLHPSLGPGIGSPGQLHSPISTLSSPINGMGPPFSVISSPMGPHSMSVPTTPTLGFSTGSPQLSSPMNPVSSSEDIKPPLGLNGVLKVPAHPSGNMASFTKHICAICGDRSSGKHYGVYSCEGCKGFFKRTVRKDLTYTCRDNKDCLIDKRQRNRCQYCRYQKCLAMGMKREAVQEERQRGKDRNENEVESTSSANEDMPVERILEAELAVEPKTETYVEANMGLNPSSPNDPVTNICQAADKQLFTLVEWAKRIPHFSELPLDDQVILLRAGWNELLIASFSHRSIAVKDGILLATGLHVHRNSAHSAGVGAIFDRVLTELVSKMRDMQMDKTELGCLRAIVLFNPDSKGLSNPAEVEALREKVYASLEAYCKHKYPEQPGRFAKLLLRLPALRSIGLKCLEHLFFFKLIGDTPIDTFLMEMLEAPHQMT
Nature of the series: PPARγ-RXRα heterodimer transactivation assay (luciferase reporter in PPARγ: RXRα: 4ERPP/CHO-K1 cell). The following applies: luciferase induction, 48 hours, concentration for 50% of the maximum activity. The series is classed as cell-based. As to the method: After washing a 96-well white plate with PBS (Phosphate-buffered saline), 90 μl of HAM F12 medium containing 0.1% fatty acid-free bovine serum albumin (BSA) and 10 μl of a test substance were added to the plate, which was then cultured in a carbonate gas incubator at 37° C. for 48 hours. After removing the medium, 40 μl of […] 7.5 (Wako Pure Chemical Ind. Ltd.) was added, and after stirring, a luciferase activity was determined using Lumistar (BMG Labtechnologies GmBH, Germany).
An induction magnitude was calculated based on the luciferase activity of each test substance with the luciferase activity in the non-treatment group being regarded as 1.
Subsequently, the cells were transferred into a HAM F12 medium containing 10% Fetal Bovine Serum and cultured for 24 hours and then the cells were scraped again and centrifuged, and then suspended in HAM F12 medium containing 10% Fetal Bovine Serum supplemented with 500 μg/ml of GENETICIN (Life Technologies, Inc., USA) and 250 μg of ZEOCIN (Invitrogen, USA) and diluted to the density of 10^4 cells/ml upon inoculation to a 96-well plate (Corning Coster Corporation, USA), which was cultured in a carbonate gas incubator at 37° C., whereby obtaining a GENETICIN- and ZEOCIN-resistant transformant.
Subsequently, the transformant cell line thus obtained was cultured in a 24-well plate (Corning Coster Corporation, USA) and then screened, by addition of 10 μM Pioglitazone, for a cell line in which the luciferase expression was induced, i.e., PPARγ: RXRα: 4ERPP/CHO-K1 cell.

For series [2], the system named is KKA^y mice. Kind of series: Hypoglycemic and hypolipidemic actions in mice (test compound in diet, plasma glucose and triglyceride). The series is classed as in vivo. The following applies: Mus musculus, feed or water, 96 h, dosage: 0.005% in diet, 4 days.
Setting [3] is: 0.01% in diet, plasma triglyceride, quantified using L-type Wako TG.H, read-out: Hypotriglyceridemic effect (% reduction).
Where [4] appears, read: 0.01% in powdered diet, plasma glucose, compared with non-treatment group, read-out: Hypoglycemic effect (% reduction).
[5] abbreviates: 0.01% in diet, plasma triglyceride, Iatro-MA701 TG kit, compared with non-treatment group, read-out: Hypotriglyceridemic effect (% reduction).

Where two headings read alike, the source gives them in different places.

With `Cc1oc(-c2ccccc2)nc1COc1ccc(CO/N=C(\CCC(=O)O)c2ccc(F)cc2)cc1` [Example 17, E-4-(4-fluorophenyl)-4-[4-(5-methyl-2-phenyl-4-oxazolylmethoxy)benzyloxyimino]butyric acid], the inhibition in vivo at 0.01 % came to 59% in the series on KKA^y mice [1] (setting [3]) and 49% in the series on KKA^y mice [1] (setting [4]). The compound also gave an EC50 on PPARγ-RXRα heterodimer of 47 nM.
As for `Cc1oc(-c2ccccc2)nc1COc1ccc(CO/N=C(\C(=O)O)c2ccccc2)cc1` [Example 1, Z-2-[4-(5-methyl-2-phenyl-4-oxazolylmethoxy)benzyloxyimino]-2-phenylacetic acid], the results for the inhibition in vivo at 0.01 % in the series on KKA^y mice [1] (setting [5]) and with KKA^y mice [1] (setting [4]) were 35% and 36%, respectively.
On to `Cc1oc(-c2ccccc2)nc1COc1ccc(CO/N=C(\CCCCCCC(=O)O)c2ccccc2)cc1` [Example 81, E-8-[4-(5-methyl-2-phenyl-4-oxazolylmethoxy)benzyloxyimino]-8-phenyloctanoic acid], for which the inhibition in vivo at 0.01 % with KKA^y mice [1] (setting [3]) worked out at 75%; in the series with KKA^y mice [1] (setting [4]), 54%. The same compound yielded an EC50 on PPARγ-RXRα heterodimer of 260 nM.
Regarding `Cc1oc(-c2ccccc2)nc1COc1ccc(CO/N=C(\C(=O)O)C(C)C)cc1` [Example 25, Z-3-methyl-2-[4-(5-methyl-2-phenyl-4-oxazolylmethoxy)benzyloxyimino]butyric acid], the values for the inhibition in vivo at 0.01 % with KKA^y mice [1] (setting [5]) and with KKA^y mice [1] (setting [4]) were 66% and 38%, respectively. Moreover, the midpoint of the response at PPARγ-RXRα heterodimer, the EC50, lay at 790 nM.
On the same counts, the results for `Cc1oc(-c2ccccc2)nc1COc1ccc(CO/N=C(\C(=O)O)c2ccc(Oc3ccccc3)cc2)cc1` [Example 11, Z-2-[4-(5-methyl-2-phenyl-4-oxazolylmethoxy)benzyloxyimino]-2-(4-phenoxyphenyl)acetic acid] are 82%, 49% and 410 nM.
As to `Cc1oc(-c2ccccc2)nc1COc1ccc(CO/N=C(\CCC(=O)O)c2ccccc2)cc1` [Example 7, E-4-[4-(5-methyl-2-phenyl-4-oxazolylmethoxy)benzyloxyimino]-4-phenylbutyric acid], the figures for the inhibition in vivo at 0.01 % in the series on KKA^y mice [1] (setting [5]) and in the series with KKA^y mice [1] (setting [4]) were 61% and 42%, respectively.
Take `Cc1oc(-c2ccccc2)nc1COc1ccc(CO/N=C(\C(=O)O)c2ccc(Br)cc2)cc1` [Example 10, Z-2-(4-bromophenyl)-2-[4-(5-methyl-2-phenyl-4-oxazolylmethoxy)benzyloxyimino]acetic acid]: the figures for the inhibition in vivo at 0.01 % with KKA^y mice [1] (setting [5]) and in the series on KKA^y mice [1] (setting [4]) were 45% and 36%, respectively.
With `Cc1oc(-c2ccccc2)nc1COc1ccc(CO/N=C(/CCC(N)=O)c2ccccc2)cc1` [Example 139, Z-4-[4-(5-methyl-2-phenyl-4-oxazolylmethoxy)benzyloxyimino]-4-phenylbutanamide], the melting point is 110 to 112 °C.
Take `Cc1oc(-c2ccccc2)nc1COc1ccc(CO/N=C(\CCC(N)=O)c2ccccc2)cc1` [Example 106, E-4-[4-(5-methyl-2-phenyl-4-oxazolylmethoxy)benzyloxyimino]-4-phenylbutyramide]: the melting point was in the range of 164 to 165 °C. In addition, the inhibition in vivo at 0.005 % in the series with KKA^y mice [2] (plasma glucose, compared with non-treatment group, read-out: Hypoglycemic effect (% reduction)) came to 46%. Moreover, in the series on KKA^y mice [2] (plasma triglyceride, quantified using L-type Wako TG.H, read-out: Hypotriglyceridemic effect (% reduction)), the inhibition in vivo at 0.005 % came out at 65%. The compound further registered an EC50 at PPARγ-RXRα heterodimer of 330 nM.
For `CCOC(=O)CC/C(=N\OCc1ccc(OCc2nc(-c3ccccc3)oc2C)cc1)c1ccc(Oc2ccccc2)cc1` [Example 46, ethyl E-4-[4-(5-methyl-2-phenyl-4-oxazolylmethoxy)benzyloxyimino]-4-(4-phenoxyphenyl)butyrate], the melting point fell in the range of 118 to 119 °C.

The values are drawn from patent US6924300B2, “Oxyiminoalkanoic acid derivatives” (Takeda Chemical Industries, Ltd., priority 1998, dated 2005).
